Test results: patent US9988381B2, “Five-member-heterocycle fused pyridine compounds, method of producing the same, and use thereof” (SHANGHAI INSTITUTE OF MATERIA MEDICA, CHINESE ACADEMY OF …, priority 2013, dated 2018)
Read-outs that look alike come from different tables or passages of the source.

Tests used:
[1] = biological target: T1, c-Met kinase domain recombinant protein (Homo sapiens, UniProt P08581); test: biochemical; conditions: read-out: Inhibition rate at 10 μM (%)
T1 construct: 50 μL diluted solution of c-Met kinase domain recombinant protein in reaction buffer was added to initiate the reaction
Summary of the method: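 Recombinant c-Met kinase domain phosphorylated immobilised Poly(Glu,Tyr)4:1 for 1 h at 37 °C in 50 mM HEPES pH 7.4, 50 mM MgCl2, 0.5 mM MnCl2, 0.2 mM Na3VO4, 1 mM DTT with ATP. Product measured by anti-phosphotyrosine PY99 ELISA (HRP, 490 nm), giving percent inhibition; ATP-free wells served as control.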

[2] = biological target: T1, c-Met kinase domain recombinant protein; test: biochemical; conditions: for inhibition at 0.1 µM: read-out: Average inhibition rate at 0.1 μM (%); for inhibition at 1 µM: read-out: Average inhibition rate at 1 μM (%); for inhibition at 10 µM: read-out: Average inhibition rate at 10 μM (%)
Summary of the method: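 IC50 came from a four-parameter fit of inhibition rates measured by anti-phosphotyrosine (PY99/HRP) ELISA at 490 nm. The reaction ran 1 hour at 37° C with 5 μM ATP, c-Met kinase domain protein and Poly(Glu,Tyr)4:1-coated wells, in HEPES pH 7.4 buffer containing MgCl2, MnCl2, Na3VO4 and DTT.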

[3] = tested on: BaF3/TPR-Met cell; test: Test III: growth inhibition of engineered BaF3/TPR-Met cells (MTT); format: cell-based; conditions: Mus musculus; for inhibition at 0.2 µM: read-out: Cell proliferation inhibition rate at 200 nM (%); for inhibition at 1 µM: read-out: Cell proliferation inhibition rate at 1 μM (%)
Experimental: Assays on the growth inhibition of the compounds against engineered BaF3/TPR-Met cell (engineered cell line having TPR-Met fusion protein stably expressed in cytoplasm, persistently activated, Met dependent sensitive cell line; BaF3 cell was purchased from DSMZ, German) were detected using microculture tetrozolium (MTT) staining. A certain amount of BaF3/TPR-Met cells at log phase were inoculated into 96-well culture plate at 90 µL per well, incubated overnight and then 10 μL compound at various concentrations or vehicle control (normal saline) was added, each concentration was tested in triplicate. After incubation with compound for 72 hours, the incubation was terminated, MTT solution (5 mg/mL) was added at 20 μL per well, incubated at 37° C. for 4 hours, then 100 μL triplet solution (10% SDS−5% isobutanol−0.01M HCl) was added, incubated overnight at 37° C., OD value was measured at 570 nm. […] Experiments were conducted in duplicates.

T1 sequence (P08581 1078-1345 limits assumed): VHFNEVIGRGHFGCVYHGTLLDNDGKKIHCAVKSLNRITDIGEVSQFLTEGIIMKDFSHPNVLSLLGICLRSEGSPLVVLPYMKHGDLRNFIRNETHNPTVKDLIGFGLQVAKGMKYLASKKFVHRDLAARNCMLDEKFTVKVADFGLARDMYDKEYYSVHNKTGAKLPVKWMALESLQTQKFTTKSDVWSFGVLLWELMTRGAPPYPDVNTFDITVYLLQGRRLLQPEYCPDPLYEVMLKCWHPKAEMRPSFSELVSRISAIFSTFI

Row | Structure (SMILES) | inhibition at 10 µM [1] [%] | IC50 [2] [nM] | inhibition at 0.1 µM [2] [%] | inhibition at 1 µM [2] [%] | inhibition at 10 µM [2] [%] | inhibition at 0.2 µM ([3]; BaF3, 72 h) [%] | inhibition at 1 µM ([3]; BaF3, 72 h) [%] | inhibition at 1 µM ([3]; BaF3/TPR-Met, 1 μM, 72 hours) [%]
1 | Cn1cc(-c2cnc3cnn(S(=O)(=O)c4c(Cl)nc5sccn45)c3c2)cn1 [Compound 18] | 64 | 4.2 ± 0.6 | 52.2 | 60.5 | 64 | 1.8 | 94.4 | 
2 | Cn1cc(-c2cnc3cnn(S(=O)(=O)c4cccc5nonc45)c3c2)cn1 [Compound 20, 1-(benzo[1,2,5]oxadiazole-4-sulfonyl)-6-[(1-methyl)-4-pyrazolyl]-1-H-pyrazolo[4,3-b]pyridine] | 85.7 | 316 ± 141 | 54.9 | 72.6 | 85.7 | 3.2 | 2.9 | 
3 | Cn1cc(-c2cnc3cnn(S(=O)(=O)c4cnc5cccnn45)c3c2)cn1 [Example 21, 1-(imidazo[1,2-b]pyridazine-3-sulfonyl)-6-[(1-methyl)-4-pyrazolyl]-1-H-pyrazolo[4,3-b]pyridine] | 77.9 |  | 59 | 59.7 | 77.9 |  |  | 42.7
4 | Cn1cc(-c2cnc3cnn(S(=O)(=O)c4cnc5ccc(Cl)cn45)c3c2)cn1 [Example 24, 1-[(6-chloro-imidazo[1,2-a]pyridine)-3-sulfonyl]-6-[(1-methyl)-4-pyrazolyl]-1-H-pyrazolo[4,3-b]pyridine] | 70.5 | 2.5 ± 1.2 | 62.9 | 67.8 | 70.5 | 65.9 | 90.9 | 
5 | Cn1cc(-c2cnc3cnn(S(=O)(=O)c4cnc5ccc(Cl)nn45)c3c2)cn1 [Example 25, 1-[(6-chloro-imidazo[1,2-b]pyridazine)-3-sulfonyl]-6-[(1-methyl)-4-pyrazolyl]-1-H-pyrazolo[4,3-b]pyridine] | 86.2 | 21.3 ± 2.3 | 71.7 | 78 | 86.2 | 36.3 | 88.4 | 
6 | O=S(=O)(c1cnc2ccccn12)n1ncc2ncc(-c3ccccc3)cc21 [Example 28, 1-(imidazo[1,2-a]pyridine-3-sulfonyl)-6-phenyl-1-H-pyrazolo[4,3-b]pyridine] | 70.6 | 6.7 ± 0.5 | 64.6 | 70.3 | 70.6 |  | 66.1 | 
7 | O=S(=O)(c1cnc2ccccn12)n1ncc2ncc(-c3ccsc3)cc21 [Example 29, 1-(imidazo[1,2-a]pyridine-3-sulfonyl)-6-(3-thienyl)-1-H-pyrazolo[4,3-b]pyridine] | 65.7 | 4.6 ± 1 | 55.7 | 63.8 | 65.7 |  | 92.6 | 
8 | CN1CCN(C(=O)c2ccc(-c3cnc4cnn(S(=O)(=O)c5cnc6ccccn56)c4c3)cc2)CC1 [Example 37, 1-(imidazo[1,2-a]pyridine-3-sulfonyl)-6-[4-(4-methylpiperazine-1-carbonyl)phenyl]-1-H-pyrazolo[4,3-b]pyridine] | 73.3 | 6.4 ± 2.2 | 60.1 | 63.8 | 73.3 | 59.5 | 96.2 | 
9 | O=S(=O)(c1cnc2ccccn12)n1ncc2ncc(-c3ccc(N4CCOCC4)cc3)cc21 [Example 39, 1-(imidazo[1,2-a]pyridine-3-sulfonyl)-6-(4-morpholinylphenyl)-1-H-pyrazolo[4,3-b]pyridine] | 68.8 | 2.6 ± 0.3 | 58.2 | 65 | 68.8 | 74.4 | 96.3 | 
